Measured values from ChEMBL document CHEMBL5335825, “Multi-target potential of newly designed tacrine-derived cholinesterase inhibitors: Synthesis, computational and pharmacological study” (Bioorg Med Chem, 2024).
Calls of active or inactive are those of the source. The rule behind the calls is not given here.

Legend:
Acetylcholinesterase = Acetylcholinesterase (Electrophorus electricus, UniProt O42275); test: Inhibition of electric eel AChE using acetylthiocholine iodide as substrate preincubated for 10 mins followed by substrate addition and measured every min for 10 mins by DTNB based Ellman's assay
Cholinesterase = Cholinesterase (Equus caballus, UniProt P81908); test: Inhibition of equine serum BuChE using butyrylthiocholine iodide as substrate preincubated for 10 mins followed by substrate addition and measured every min for 10 mins by DTNB based Ellman's assay
[1] = Selectivity index, ratio of IC50 for cytotoxicity against human SH-SY5Y cells to IC50 for inhibition of electric eel AChE
[2] = Selectivity index, ratio of IC50 for cytotoxicity against human SH-SY5Y cells to IC50 for inhibition of equine serum BuChE
in vitro = conditions: human, SH-SY5Y cells
Description: Cytotoxicity against human SH-SY5Y cells assessed as reduction in cell viability incubated for 24 hrs by crystal violet staining based analysis

[3] = molecular target: Acetylcholinesterase (Electrophorus electricus) (UniProt O42275); test: Mixed type inhibition of electric eel AChE using varying concentrations of acetylthiocholine iodide as substrate assessed as decrease in Vmax with varied Km by Lineweaver-Burk plot analysis
[4] = molecular target: Cholinesterase (Equus caballus) (UniProt P81908); test: Mixed type inhibition of equine serum BuChE using varying concentrations of butyrylthiocholine iodide as substrate assessed as decrease in Vmax with varied Km by Lineweaver-Burk plot analysis
Chain of Cholinesterase (Equus caballus) (P81908 whole entry): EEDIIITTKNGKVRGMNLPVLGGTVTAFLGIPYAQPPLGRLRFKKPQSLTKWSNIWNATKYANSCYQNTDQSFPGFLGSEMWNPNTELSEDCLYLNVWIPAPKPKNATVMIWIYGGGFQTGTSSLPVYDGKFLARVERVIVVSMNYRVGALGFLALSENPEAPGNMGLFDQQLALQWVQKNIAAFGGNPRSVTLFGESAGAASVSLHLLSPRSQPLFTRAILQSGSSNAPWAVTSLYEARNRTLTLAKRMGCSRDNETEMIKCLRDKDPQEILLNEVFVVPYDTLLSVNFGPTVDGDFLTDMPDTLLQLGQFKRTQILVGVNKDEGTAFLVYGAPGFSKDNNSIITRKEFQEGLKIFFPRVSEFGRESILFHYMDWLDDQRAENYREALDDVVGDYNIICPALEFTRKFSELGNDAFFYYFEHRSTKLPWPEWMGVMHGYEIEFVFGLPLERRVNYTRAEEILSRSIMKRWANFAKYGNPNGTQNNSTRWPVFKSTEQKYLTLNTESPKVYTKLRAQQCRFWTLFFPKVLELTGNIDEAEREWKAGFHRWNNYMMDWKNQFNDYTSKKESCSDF

Chain of Acetylcholinesterase (O42275 whole entry): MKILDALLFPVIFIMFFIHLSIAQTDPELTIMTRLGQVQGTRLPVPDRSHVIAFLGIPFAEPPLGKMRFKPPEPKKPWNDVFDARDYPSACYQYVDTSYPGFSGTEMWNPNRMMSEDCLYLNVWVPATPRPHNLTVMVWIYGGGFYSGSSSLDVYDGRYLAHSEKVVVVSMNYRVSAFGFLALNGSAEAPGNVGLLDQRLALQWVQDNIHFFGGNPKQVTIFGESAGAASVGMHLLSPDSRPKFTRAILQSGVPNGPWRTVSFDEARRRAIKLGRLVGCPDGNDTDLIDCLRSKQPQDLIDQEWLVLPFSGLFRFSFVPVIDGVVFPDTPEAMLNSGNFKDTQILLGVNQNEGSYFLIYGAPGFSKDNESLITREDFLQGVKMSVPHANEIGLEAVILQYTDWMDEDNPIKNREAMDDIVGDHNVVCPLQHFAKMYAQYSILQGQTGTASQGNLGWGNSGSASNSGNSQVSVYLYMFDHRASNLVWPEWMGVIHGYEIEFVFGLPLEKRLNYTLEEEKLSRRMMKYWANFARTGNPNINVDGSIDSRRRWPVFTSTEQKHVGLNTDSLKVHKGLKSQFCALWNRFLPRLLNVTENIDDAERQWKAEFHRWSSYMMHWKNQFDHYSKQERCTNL
Chain of Cholinesterase (P81908 whole entry): as the sequence (P81908 whole entry) above
Chain of Acetylcholinesterase (Electrophorus electricus) (O42275 24-633 limits assumed): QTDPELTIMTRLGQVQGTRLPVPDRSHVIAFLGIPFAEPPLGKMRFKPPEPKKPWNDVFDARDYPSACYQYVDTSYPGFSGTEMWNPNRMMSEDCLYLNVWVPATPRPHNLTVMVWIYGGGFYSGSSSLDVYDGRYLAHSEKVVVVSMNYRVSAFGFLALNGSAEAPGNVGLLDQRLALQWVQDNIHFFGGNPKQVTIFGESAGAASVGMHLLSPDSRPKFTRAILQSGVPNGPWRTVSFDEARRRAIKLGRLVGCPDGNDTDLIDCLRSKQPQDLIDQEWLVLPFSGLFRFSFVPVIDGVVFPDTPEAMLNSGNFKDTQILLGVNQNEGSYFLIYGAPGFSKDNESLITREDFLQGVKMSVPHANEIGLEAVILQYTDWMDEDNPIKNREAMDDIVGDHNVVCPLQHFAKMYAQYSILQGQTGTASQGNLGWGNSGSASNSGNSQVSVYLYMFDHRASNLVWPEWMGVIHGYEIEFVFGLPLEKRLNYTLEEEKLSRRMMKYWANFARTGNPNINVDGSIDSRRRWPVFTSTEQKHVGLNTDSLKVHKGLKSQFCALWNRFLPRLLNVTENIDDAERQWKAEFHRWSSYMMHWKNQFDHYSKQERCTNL

Compound | IC50 (Acetylcholinesterase) [µM] | IC50 (Cholinesterase) [µM] | Ratio IC50 [1] | Ratio IC50 [2] | IC50 at 24 h (in vitro) [µM] | inhibition [3] | inhibition [4]
O=C(NCCCCCNc1c2c(nc3ccccc13)CCCC2)C1CCN(C(=O)c2cccc(F)c2)CC1 | 0.139 | 0.0735 | 417.2 | 789 | 58 | – | –
O=C(NCCCCCNc1c2c(nc3ccccc13)CCCC2)C1CCN(C(=O)c2ccncc2)CC1 | 0.291 | 0.084 | 472 | 1635.1 | 137 | – | –
COc1ccccc1C(=O)N1CCC(C(=O)NCCCCCNc2c3c(nc4ccccc24)CCCC3)CC1 | 0.226 | 0.048 | 480.4 | 2266.7 | 109 | – | –
COc1ccc(C(=O)N2CCC(C(=O)NCCCCCNc3c4c(nc5ccccc35)CCCC4)CC2)cc1 | 0.222 | 0.246 | 667.9 | 605.3 | 149 | – | –
O=C(NCCCCCNc1c2c(nc3ccccc13)CCCC2)C1CCN(C(=O)c2ccccc2F)CC1 | 0.241 | 0.034 | – | – | 192 | – | –
COc1cccc(C(=O)N2CCC(C(=O)NCCCCCNc3c4c(nc5ccccc35)CCCC4)CC2)c1 | 0.287 | 0.0605 | 326 | 1546.3 | 93.6 | – | –
O=C(NCCCCCNc1c2c(nc3ccccc13)CCCC2)C1CCN(C(=O)c2ccccc2Cl)CC1 | 0.156 | 0.0825 | 1188.8 | 2247.9 | 186 | Active | Active
O=C(NCCCCCNc1c2c(nc3ccccc13)CCCC2)C1CCN(C(=O)c2ccc(Cl)cc2)CC1 | 0.443 | 0.114 | 69.4 | 268.5 | 30.7 | – | –
O=C(NCCCCCNc1c2c(nc3ccccc13)CCCC2)C1CCN(C(=O)c2ccc(F)cc2)CC1 | 0.37 | 0.153 | – | – | – | – | –
O=C(NCCCCCNc1c2c(nc3ccccc13)CCCC2)C1CCN(C(=O)c2cccnc2)CC1 | 0.162 | 0.0985 | – | – | – | – | –
O=C(NCCCCCNc1c2c(nc3ccccc13)CCCC2)C1CCN(C(=O)c2ccccc2)CC1 | 0.117 | 0.0465 | 589.8 | 1490.3 | 69.3 | – | –
O=C(NCCCCCNc1c2c(nc3ccccc13)CCCC2)C1CCN(C(=O)c2ccccn2)CC1 | 0.455 | 0.324 | 247.1 | 347.1 | 112 | – | –
O=C(NCCCCCNc1c2c(nc3ccccc13)CCCC2)C1CCN(C(=O)c2cccc(Cl)c2)CC1 | 0.159 | 0.0705 | 926.2 | 2082.3 | 147 | – | –
